Patent US20240165259A1, “BIOORTHOGONAL REACTION SUITABLE FOR CLICK/UNCLICK APPLICATIONS” (DANA-FARBER CANCER INSTITUTE, INC., priority 2021, published 2024)
“And” between values parts separate entries of the source, which are not always exact repeats. Identical values can stand only once. Values belong to the compound of their own block, whether it stands above or below them.

Legend:
[1] = molecular target: T1, lysozyme-cyclooctyne conjugate (Lys-COT) 11″ (Gallus gallus, UniProt P00698); experiment: Time-dependent labeling of Lys-COT 11″ by TAMRA-hydroxylamines 6″-10″ (in-gel fluorescence); type: biochemical; settings: 200 μM hydroxylamine, 10 μM Lys-COT 11″, PBS; for extent of lysozyme labeling: 1-72 h; for time to complete conversion (lysozyme labeling): room temperature
T1 construct: purchased
T1 sequence (P00698 19-147): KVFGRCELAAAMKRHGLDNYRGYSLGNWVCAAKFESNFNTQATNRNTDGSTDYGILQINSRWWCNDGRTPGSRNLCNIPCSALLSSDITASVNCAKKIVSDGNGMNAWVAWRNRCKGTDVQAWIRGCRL
Procedure: The relative rates of hydroamination between TAMRA-hydroxylamines 6″-10″ ([…]) and Lys-COT 11″ (10 μM) were evaluated by monitoring the extent of lysozyme labeling over 1-72 h in phosphate-buffered saline (PBS) at room temperature by in-gel fluorescence (FIG. 26B).
Lysozyme (CAS 12650-88-3, 50 mg/mL in deionized H2O) was diluted into phosphate-buffered saline (PBS, pH 7.4) to a final concentration of 10 mg/mL. […] The reaction solution was incubated for 1 h at room temperature. […] The concentration of lysozyme was determined by A280 measurement in denaturing buffer (pH 7.0, 6 M guanidinium, 30 mM MOPS) on a UV-vis spectrophotometer. The solution was diluted with PBS (pH 7.4) to a final concentration of 0.15 mg/mL or 0.60 mg/mL for labeling experiments. The protein solutions were snap frozen under liquid nitrogen and stored at −20° C.
Time-dependent protein labeling experiments: A solution of TAMRA-hydroxylamine 6″ (Kang, et al., J. Am. Chem. Soc. 143:5616-5621 (2021))-8″ and 10″ (1.26 μL, 5 mM in H2O; 200 μM final concentration) or 9″ (1.26 μL, 5 mM in 50% DMSO/H2O; 200 μM final concentration) was added to a solution of lysozyme-COT 11″ (30.0 μL, 0.15 mg/mL in PBS, pH 7.4). The reaction mixtures were incubated at room temperature in the dark. At each time point, an aliquot of the reaction mixture (3 uL) was removed, quenched by adding 1×SDS sample buffer (19.5 μL) and N,N-diethylhydroxylamine (7.5 uL, 100 mM in H2O; 25 mM final concentration), snap frozen in liquid nitrogen, and stored at −80° C. until all samples were ready to be loaded on the gel. After 72 h, all reactions had been quenched. All samples were thawed, and each solution (6 μL) was loaded onto a 15-well 12% SDS-PAGE gel. The gel was run at room temperature and at 175 V for 50 min. In-gel fluorescence was imaged with a Typhoon™ FLA 9500 (GE) at 532 nm with a photomultiplier tube (PMT) setting of 500 V (FIG. 35-FIG. 37).

[2] = Reactivity screening of linear alkynes 8′-15′ (NMR conversion); type: physicochemical; settings: 10 mM alkyne, 5 equivalents hydroxylamine, CD3CN, room temperature, 48 hours
Procedure: With the desired alkynes in hand, their reactivity toward N,N-diethylhydroxylamine (2′) was examined. […] were each incubated with 5 equivalents of […] in CD3CN at room temperature, and the reaction conversions were monitored by ^1H (alkyne 8′) or ^19F (alkynes 9′-15′) NMR (FIG. 12A). […] Their conversion to the corresponding enamine N-oxides could only be achieved upon heating to 60° C. (Example 59).
Each experiment was performed with 10 mM alkyne (8′-15′) and 50 mM […] in CD3CN at room temperature. The consumption of starting material was monitored via ^1H (8′) or ^19F (9′-15′) NMR spectroscopy using α,α,α-benzotrifluoride as an internal standard (FIG. 12A).

[3] = Stability study of alkynes and enamine N-oxide 20′ in 50% CD3CN/PBS with or without glutathione or cell lysate (19F NMR); type: physicochemical; settings: for time over which compound is stable: 2 mM compound, 50% CD3CN/PBS (pH 7.0), 19F NMR; for degradation by 19F NMR without glutathione: pH 7.0, room temperature, 7 days
Procedure: The stability of alkynes 13′-15′ under biological conditions was evaluated (FIG. 13B). […] These stabilities compared favorably with contemporary bioorthogonal transformations (Oliveira et al., Chem. Soc. Rev. 46(16):4895-4950 (2017); Tian et al., ACS Chem. Biol. 14(12):2489-2496 (2019)). […] This observation was consistent with σ-withdrawing/n-donating alkyne substituents, such as halogens, simultaneously promoting hydroamination and attenuating conjugate addition by cellular nucleophiles.
The enamine N-oxide products were remarkably stable, especially in aqueous solutions.
All stability experiments were carried out at room temperature in 50% CD3CN in PBS (pH 7.0) with or without equimolar glutathione. pH was adjusted after the addition of glutathione. Reactions were monitored via ^19F NMR spectroscopy using α,α,α-benzotrifluoride as an internal standard (FIG. 17-FIG. 20).

[4] = Second-order kinetics of cyclooctyne hydroamination by N,N-diethylhydroxylamine (NMR; competition experiment for 10); type: physicochemical; settings: CD3CN, room temperature; for k2 (M^−1s^−1), second order rate constant: equimolar cyclooctyne and N,N-diethylhydroxylamine, NMR, error = standard deviation of the mean, triplicate
Procedure: Using NMR spectroscopy to monitor reaction progress, the second order rate constants for the reaction of N,N-diethylhydroxyl amine (1) with a panel of cyclooctynes 2-10 in d3-acetonitrile was determined at room temperature (FIG. 3).
All kinetics experiments were carried out at room temperature in CD3CN. Reactions were monitored via NMR spectroscopy using an internal standard. Second order kinetics were performed by combining cyclooctynes and N,N-diethylhydroxylamine in a 1:1 ratio. […] The reported errors for rate constants are based on the standard deviation of the mean for experiments performed in triplicate.
The second order rate constant for difluorocyclooctyne 10 was determined using a competition experiment with carbamate 9. […] The solution was transferred to an NMR tube and the product ratio (S14:S13) was determined by ^1HNMR spectroscopy using 1,3,5-trimethoxylbenzene as an internal standard. […] The reported error for the rate constant is the standard deviation of the mean for experiments performed in triplicate.

extent of lysozyme labeling [1]: poor labeling
Compound: CC(C)N(O)CCOCCNC(=O)c1ccc2c(c1)C1(OC2=O)c2ccc(N(C)C)cc2Oc2cc(N(C)C)ccc21 [7″, 3′,6′-Bis(dimethylamino)-N-(2-(2-(hydroxy(isopropyl)amino)ethoxy)ethyl)-3-oxo-3H-spiro[isobenzofuran-1,9′-xanthene]-6-carboxamide]

Compound: C#CCOCc1ccc(OC)cc1 [8′, 1-methoxy-4-((prop-2-yn-1-yloxy)methyl)benzene]
reactivity toward N,N-dialkylhydroxylamine (NMR conversion) [2]: no conversion

extent of lysozyme labeling [1]: poor labeling
Compound: CN(C)c1ccc2c(c1)Oc1cc(N(C)C)ccc1C21OC(=O)c2ccc(C(=O)NCCOCCN(O)C(C)(C)C)cc21 [8″, N-(2-(2-(tert-Butyl(hydroxy)amino)ethoxy)ethyl)-3′,6′-bis(dimethylamino)-3-oxo-3H-spiro[isobenzofuran-1,9′-xanthene]-6-carboxamide]

Compound: C#CC(F)CCOCc1ccc(OC)cc1 (centres unmarked) [9′, 1-(((3-fluoropent-4-yn-1-yl)oxy)methyl)-4-methoxybenzene]
reactivity toward N,N-dialkylhydroxylamine (NMR conversion) [2]: no conversion

time to complete conversion (lysozyme labeling) [1]: ≤ 6 h
Compound: CN(C)c1ccc2c(c1)Oc1cc(N(C)C)ccc1C21OC(=O)c2ccc(C(=O)NCCOCCN(O)Cc3ccccc3)cc21 [9″, N-(2-(2-(Benzyl(hydroxy)amino)ethoxy)ethyl)-3′,6′-bis(dimethylamino)-3-oxo-3H-spiro[isobenzofuran-1,9′-xanthene]-6-carboxamide]

Compound: C#CC(F)(F)CCOCc1ccc(OC)cc1 [10′, 1-(((3,3-difluoropent-4-yn-1-yl)oxy)methyl)-4-methoxybenzene]
reactivity toward N,N-dialkylhydroxylamine (NMR conversion) [2]: partial conversion

time to complete conversion (lysozyme labeling) [1]: ≤ 10 h
Compound: CN(C)c1ccc2c(c1)Oc1cc(N(C)C)ccc1C21OC(=O)c2ccc(C(=O)N3CCN(O)CC3)cc21 [10″, 3′,6′-Bis(dimethylamino)-6-(4-hydroxypiperazine-1-carbonyl)-3H-spiro[isobenzofuran-1,9′-xanthen]-3-one]

Compound: C#CC(F)(F)OCCOCc1ccc(OC)cc1 [11′, 1-((2-((1,1-difluoroprop-2-yn-1-yl)oxy)ethoxy)methyl)-4-methoxybenzene]
reactivity toward N,N-dialkylhydroxylamine (NMR conversion) [2]: moderate reactivity

Compound: COc1ccc(COCCOC(F)(F)C#CI)cc1 [12′, 1-((2-((1,1-difluoro-3-iodoprop-2-yn-1-yl)oxy)ethoxy)methyl)-4-methoxybenzene]
reactivity toward N,N-dialkylhydroxylamine (NMR conversion) [2]: moderate reactivity

time to degradation in the presence of thiol ([3]; 50% CD3CN/PBS, pH 7.0, 2 mM glutathione): < 10 min
Compound: COc1ccc(COCCOC(F)(F)C#CBr)cc1 [13′, 1-((2-((3-bromo-1,1-difluoroprop-2-yn-1-yl)oxy)ethoxy)methyl)-4-methoxybenzene]

time over which compound is stable [3]: ≥ 2 weeks
degradation by 19F NMR without glutathione ([3]; 50% CD3CN/PBS): no degradation
Compound: COc1ccc(COCCOC(F)(F)C#CCl)cc1 [14′, 1-((2-((3-chloro-1,1-difluoroprop-2-yn-1-yl)oxy)ethoxy)methyl)-4-methoxybenzene]

time over which compound is stable [3]: ≥ 1 weeks
half-life ([3]; 50% CD3CN/PBS with 2 mM glutathione, pH 7, 50% CD3CN/PBS, pH 7.0, 2 mM glutathione, room temperature (500 μM compound elsewhere in the source), read-out: half-life in the presence of glutathione (converted)): 43 h
degradation by 19F NMR without glutathione ([3]; 50% CD3CN/PBS): no degradation
Compound: COc1ccc(COCCC(F)(F)C#CCl)cc1 [15′, 1-(((5-chloro-3,3-difluoropent-4-yn-1-yl)oxy)methyl)-4-methoxybenzene]

degradation in cell lysate ([3]; cell lysate, room temperature, 24 hours): no observable degradation
Compound: CC[N+]([O-])(CC)/C(Cl)=C/C(F)(F)OCCOCc1ccc(OC)cc1 [20′, (Z)-1-chloro-N,N-diethyl-3,3-difluoro-3-(2-((4-methoxybenzyl)oxy)ethoxy)prop-1-en-1-amine oxide]

Compound: OC1C#CCCCCC1 (centres unmarked) [compound 4, cyclooct-2-yn-1-ol]
k2 (M^−1s^−1), second order rate constant [4]: 1.19 ± 0.15 M⁻¹ s⁻¹

Compound: C1#CC2(CCCCC1)OCCO2 [compound 5, 1,4-dioxaspiro[4.7]dodec-6-yne]
k2 (M^−1s^−1), second order rate constant [4]: 1.20 ± 0.09 M⁻¹ s⁻¹

Compound: CC(=O)OC1C#CCCCCC1 (centres unmarked) [compound 6, cyclooct-2-yn-1-yl acetate]
k2 (M^−1s^−1), second order rate constant [4]: 2.13 ± 0.03 M⁻¹ s⁻¹

Compound: FC1C#CCCCCC1 (centres unmarked) [compound 7, 3-fluorocyclooct-1-yne]
k2 (M^−1s^−1), second order rate constant [4]: 2.71 ± 0.43 M⁻¹ s⁻¹

Compound: O=C(Nc1ccc([N+](=O)[O-])cc1)OC1C#CCCCCC1 (centres unmarked) [compound 9, cyclooct-2-yn-1-yl (4-nitrophenyl)carbamate]
rate acceleration over cyclooctyne (2) [4]: 120 fold
k2 (M^−1s^−1), second order rate constant [4]: 3.87 M⁻¹ s⁻¹ and 3.87 ± 0.55 M⁻¹ s⁻¹

Compound: dibenzoazacyclooctyne [compound 8, reference compound]
k2 (M^−1s^−1), second order rate constant [4]: 2.77 ± 0.13 M⁻¹ s⁻¹
